Experimental data as given in patent publication US20230151003A1, “COMPOUNDS AND METHODS OF USE” (Exelixis, Inc., priority 2020, published 2023).
pIC50: −log10 of the molar value.

What was measured:
Mer = biological target: T1, Mer (Homo sapiens, UniProt Q12866); assay: Mer autophosphorylation ELISA in transient transfected 293A cells; type: cell-based; conditions: Table 3 Cellular Activities; MERTK-transfected 293A cells, phospho-Mer ELISA
T1 construct: host or cells: 293A cells (Thermo Fisher #R70507)
T1 sequence (Q12866 21-999): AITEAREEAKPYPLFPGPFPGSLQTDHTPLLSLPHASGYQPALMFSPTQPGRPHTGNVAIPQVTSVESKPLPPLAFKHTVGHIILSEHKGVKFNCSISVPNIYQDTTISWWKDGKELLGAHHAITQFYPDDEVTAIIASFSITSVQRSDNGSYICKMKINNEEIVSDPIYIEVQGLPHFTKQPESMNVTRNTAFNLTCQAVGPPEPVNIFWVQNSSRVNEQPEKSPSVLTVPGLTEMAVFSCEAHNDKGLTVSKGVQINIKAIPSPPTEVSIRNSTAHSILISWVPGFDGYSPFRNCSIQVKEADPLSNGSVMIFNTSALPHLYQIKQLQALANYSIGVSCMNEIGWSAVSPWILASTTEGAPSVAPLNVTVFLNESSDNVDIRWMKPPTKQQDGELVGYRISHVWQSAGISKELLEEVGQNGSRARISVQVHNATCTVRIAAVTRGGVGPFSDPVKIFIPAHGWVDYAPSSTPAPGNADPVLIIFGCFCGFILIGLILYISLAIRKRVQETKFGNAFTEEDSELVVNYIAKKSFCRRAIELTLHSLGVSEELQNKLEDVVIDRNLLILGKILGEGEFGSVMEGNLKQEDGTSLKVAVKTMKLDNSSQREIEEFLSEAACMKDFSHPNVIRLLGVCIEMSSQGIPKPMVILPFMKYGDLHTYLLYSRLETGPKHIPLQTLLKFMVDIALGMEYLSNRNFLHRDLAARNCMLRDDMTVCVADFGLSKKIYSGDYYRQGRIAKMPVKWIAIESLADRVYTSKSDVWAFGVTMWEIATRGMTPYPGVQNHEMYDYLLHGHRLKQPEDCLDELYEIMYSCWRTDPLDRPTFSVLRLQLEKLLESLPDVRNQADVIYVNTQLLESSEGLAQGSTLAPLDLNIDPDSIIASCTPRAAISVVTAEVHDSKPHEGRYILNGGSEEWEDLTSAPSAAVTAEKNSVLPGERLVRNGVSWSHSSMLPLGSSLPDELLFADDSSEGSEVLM
Procedure, shortened: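 Phospho-Mer quantified by ELISA in lysates of transiently MERTK-transfected 293A cells after 1 h exposure to an 8-point compound series, serum-free, 0.3% DMSO. Activity normalized between DMSO-treated (100%) and reference inhibitor-treated (0%) lysates; IC50 via 4-parameter nonlinear regression.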

Met = Met (Homo sapiens, UniProt P08581); assay: Met autophosphorylation ELISA in PC-3 cells; type: cell-based; set-up: endogenous in cells; host or cells: PC-3 prostate cancer cells (ATCC #CRL-1435); conditions: Table 3 Cellular Activities, HGF-stimulated, phospho-Met ELISA, read-out: c-Met IC50
Procedure, shortened: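 IC50 derived by 4-parameter logistic regression of phospho-Met (panTyr) sandwich ELISA signal, scaled between HGF-stimulated DMSO and reference-inhibitor lysates. PC-3 cells, serum-starved 3 h, received an 8-point compound series (0.3% DMSO) for 1 h before 10 min stimulation with 100 ng/mL human HGF.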

Chain of Met (P08581 25-1390): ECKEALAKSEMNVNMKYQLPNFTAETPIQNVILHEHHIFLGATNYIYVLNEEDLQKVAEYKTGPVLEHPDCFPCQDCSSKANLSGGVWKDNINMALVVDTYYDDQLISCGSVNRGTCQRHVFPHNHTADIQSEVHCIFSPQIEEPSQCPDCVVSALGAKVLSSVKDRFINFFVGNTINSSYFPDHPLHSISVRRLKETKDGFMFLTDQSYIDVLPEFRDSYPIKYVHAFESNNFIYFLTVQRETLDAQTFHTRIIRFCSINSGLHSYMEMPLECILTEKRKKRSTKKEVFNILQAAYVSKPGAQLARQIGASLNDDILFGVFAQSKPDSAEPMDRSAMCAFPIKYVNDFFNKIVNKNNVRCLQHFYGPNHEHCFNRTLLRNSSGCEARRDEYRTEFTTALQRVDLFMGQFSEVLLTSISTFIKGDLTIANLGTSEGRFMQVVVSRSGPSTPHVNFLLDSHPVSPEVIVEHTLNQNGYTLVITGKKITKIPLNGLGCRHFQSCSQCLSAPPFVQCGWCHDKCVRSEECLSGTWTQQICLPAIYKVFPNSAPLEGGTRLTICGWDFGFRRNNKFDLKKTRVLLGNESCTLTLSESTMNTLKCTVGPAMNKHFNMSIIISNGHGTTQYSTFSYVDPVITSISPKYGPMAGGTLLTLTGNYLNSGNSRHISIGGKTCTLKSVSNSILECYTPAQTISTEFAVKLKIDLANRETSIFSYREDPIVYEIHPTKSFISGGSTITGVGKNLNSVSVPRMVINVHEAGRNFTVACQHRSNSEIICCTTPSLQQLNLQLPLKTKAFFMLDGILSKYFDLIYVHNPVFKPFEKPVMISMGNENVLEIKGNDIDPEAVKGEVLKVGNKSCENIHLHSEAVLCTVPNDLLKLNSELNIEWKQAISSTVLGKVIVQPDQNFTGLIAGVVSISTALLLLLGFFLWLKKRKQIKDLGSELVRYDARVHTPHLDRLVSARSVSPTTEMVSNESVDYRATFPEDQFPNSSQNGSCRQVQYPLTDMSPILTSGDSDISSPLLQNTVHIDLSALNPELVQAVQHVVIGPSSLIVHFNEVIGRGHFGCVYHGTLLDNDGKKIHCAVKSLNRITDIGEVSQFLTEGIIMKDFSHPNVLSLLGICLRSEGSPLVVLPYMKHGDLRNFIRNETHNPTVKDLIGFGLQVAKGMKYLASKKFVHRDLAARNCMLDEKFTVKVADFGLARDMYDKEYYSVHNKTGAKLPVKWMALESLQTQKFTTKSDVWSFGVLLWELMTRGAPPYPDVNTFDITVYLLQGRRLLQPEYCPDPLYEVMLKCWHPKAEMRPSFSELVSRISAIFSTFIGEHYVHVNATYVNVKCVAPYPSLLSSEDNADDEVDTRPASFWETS

Structure (SMILES) | pIC50 (Mer) | pIC50 (Met)
COc1cc2nccc(Oc3ccc(NC(=O)c4c(C)nc(C)c(-c5ccco5)c4O)cc3F)c2nc1OC [Compound 135, N-[4-[(6,7-Dimethoxy-1,5-naphthyridin-4-yl)oxy]-3-fluorophenyl]-5-(furan-2-yl)-4-hydroxy-2,6-dimethylpyridine-3-carboxamide] | ≥ 7.00 | ≥ 7.00
COc1cc2nccc(Oc3ccc(NC(=O)c4c(C)ncc(-c5ccsc5)c4O)cc3F)c2nc1OC [Compound 127, N-[4-[(6,7-Dimethoxy-1,5-naphthyridin-4-yl)oxy]-3-fluorophenyl]-4-hydroxy-2-methyl-5-thiophen-3-ylpyridine-3-carboxamide] | ≥ 7.00 | ≥ 7.00
CCc1ccc(-c2c(C)ncc(C(=O)Nc3ccc(Oc4ccnc5cc(OC)c(OC)nc45)c(F)c3)c2O)o1 [Compound 153, N-[4-[(6,7-Dimethoxy-1,5-naphthyridin-4-yl)oxy]-3-fluorophenyl]-5-(5-ethylfuran-2-yl)-4-hydroxy-6-methylpyridine-3-carboxamide] | ≥ 7.00 | 6.52 to 7.00
COCc1nc(C)c(-c2ccc(C)o2)c(O)c1C(=O)Nc1ccc(Oc2ccnc3cc(OC)c(OC)nc23)c(F)c1 [Compound 117, N-[4-[(6,7-Dimethoxy-1,5-naphthyridin-4-yl)oxy]-3-fluorophenyl]-4-hydroxy-2-(methoxymethyl)-6-methyl-5-(5-methylfuran-2-yl)pyridine-3-carboxamide] | ≥ 7.00 | ≥ 7.00
COc1cnc2c(Oc3ccc(NC(=O)c4cnc(C)c(-c5ccc(C)s5)c4O)cc3F)ccnc2c1 [Compound 101, N-[3-Fluoro-4-[(7-methoxy-1,5-naphthyridin-4-yl)oxy]phenyl]-4-hydroxy-6-methyl-5-(5-methyl-2-thienyl) pyridine-3-carboxamide] | ≥ 7.00 | ≥ 7.00
COc1cc2nccc(Oc3ccc(NC(=O)c4cnc(C)c(-c5ccnn5C)c4O)cc3F)c2nc1OC [Compound 104] | ≥ 7.00 | ≥ 7.00
COc1cc2nccc(Oc3ccc(NC(=O)c4cnc(C)c(-c5ccc(C)o5)c4O)cc3F)c2nc1OC [Compound 92, N-[4-[(6,7-Dimethoxy-1,5-naphthyridin-4-yl)oxy]-3-fluoro-phenyl]-4-hydroxy-6-methyl-5-(5-methyl-2-furyl)pyridine-3-carboxamide] | ≥ 7.00 | ≥ 7.00
COc1cc2nccc(Oc3ccc(NC(=O)c4c(C)nc(C)c(-c5ccoc5)c4O)cc3F)c2nc1OC [Compound 112, N-[4-[(6,7-Dimethoxy-1,5-naphthyridin-4-yl)oxy]-3-fluoro-phenyl]-5-(3-furyl)-4-hydroxy-2,6-dimethyl-pyridine-3-carboxamide] | ≥ 7.00 | ≥ 7.00
COc1cc2nccc(Oc3ccc(NC(=O)c4c(C)ncc(-c5cccs5)c4O)cc3F)c2nc1OC [Compound 123, N-[4-[(6,7-Dimethoxy-1,5-naphthyridin-4-yl)oxy]-3-fluorophenyl]-4-hydroxy-2-methyl-5-thiophen-2-ylpyridine-3-carboxamide] | ≥ 7.00 | ≥ 7.00
CCc1ccc(-c2c(C)nc(C)c(C(=O)Nc3ccc(Oc4ccnc5cc(OC)c(OC)nc45)c(F)c3)c2O)o1 [Compound 147, N-[4-[(6,7-Dimethoxy-1,5-naphthyridin-4-yl)oxy]-3-fluorophenyl]-5-(5-ethylfuran-2-yl)-4-hydroxy-2,6-dimethylpyridine-3-carboxamide] | ≥ 7.00 | ≥ 7.00
COc1cc2nccc(Oc3ccc(NC(=O)c4c(C)nc(C)c(-c5sccc5C)c4O)cc3F)c2nc1OC [Compound 139, N-[4-[(6,7-Dimethoxy-1,5-naphthyridin-4-yl)oxy]-3-fluorophenyl]-4-hydroxy-2,6-dimethyl-5-(3-methylthiophen-2-yl)pyridine-3-carboxamide] | ≥ 7.00 | ≥ 7.00
C=CCc1ccc(-c2c(C)ncc(C(=O)Nc3ccc(Oc4ccnc5cc(OC)c(OC)nc45)c(F)c3)c2O)o1 [Compound 155, N-[4-[(6,7-Dimethoxy-1,5-naphthyridin-4-yl)oxy]-3-fluorophenyl]-4-hydroxy-6-methyl-5-(5-prop-2-enylfuran-2-yl)pyridine-3-carboxamide] | ≥ 7.00 | ≥ 7.00
COc1cc2nccc(Oc3ccc(NC(=O)c4cnc(C)c(-c5ccc(C(C)C)o5)c4O)cc3F)c2nc1OC [Compound 154, N-[4-[(6,7-Dimethoxy-1,5-naphthyridin-4-yl)oxy]-3-fluorophenyl]-4-hydroxy-6-methyl-5-(5-propan-2-ylfuran-2-yl)pyridine-3-carboxamide] | ≥ 7.00 | ≥ 7.00
C=Cc1ccc(-c2c(C)ncc(C(=O)Nc3ccc(Oc4ccnc5cc(OC)c(OC)nc45)c(F)c3)c2O)o1 [Compound 151, N-[4-[(6,7-Dimethoxy-1,5-naphthyridin-4-yl)oxy]-3-fluorophenyl]-5-(5-ethenylfuran-2-yl)-4-hydroxy-6-methylpyridine-3-carboxamide] | ≥ 7.00 | ≥ 7.00
COc1cc2nccc(Oc3ccc(NC(=O)c4cnc(C)c(-c5ccsc5)c4O)cc3F)c2nc1OC [Compound 93, N-[4-[(6,7-Dimethoxy-1,5-naphthyridin-4-yl)oxy]-3-fluoro-phenyl]-4-hydroxy-6-methyl-5-(3-thienyl)pyridine-3-carboxamide] | ≥ 7.00 | ≥ 7.00
COc1cc2nccc(Oc3ccc(NC(=O)c4cn(CCF)c(C)c(-c5ccsc5)c4=O)cc3F)c2nc1OC [Compound 332, N-[4-[(6,7-Dimethoxy-1,5-naphthyridin-4-yl)oxy]-3-fluorophenyl]-1-(2-fluoroethyl)-6-methyl-4-oxo-5-thiophen-3-ylpyridine-3-carboxamide] | ≥ 7.00 | ≥ 7.00
COc1cnc2c(Oc3ccc(NC(=O)c4cnc(C)c(-c5ccoc5)c4O)cc3F)ccnc2c1 [Compound 99, N-[3-Fluoro-4-[(7-methoxy-1,5-naphthyridin-4-yl)oxy]phenyl]-5-(3-furyl)-4-hydroxy-6-methyl-pyridine-3-carboxamide] | ≥ 7.00 | ≥ 7.00
COc1cc2nccc(Oc3ccc(NC(=O)c4cnc(C)c(-c5cc(C)nn5C)c4O)cc3F)c2nc1OC [Compound 136, N-[4-[(6,7-Dimethoxy-1,5-naphthyridin-4-yl)oxy]-3-fluorophenyl]-5-(2,5-dimethylpyrazol-3-yl)-4-hydroxy-6-methylpyridine-3-carboxamide] | ≥ 7.00 | ≥ 7.00
COc1cc2nccc(Oc3ccc(NC(=O)c4c(C)nc(C)c(-c5ccc(C(C)C)o5)c4O)cc3F)c2nc1OC [Compound 148, N-[4-[(6,7-Dimethoxy-1,5-naphthyridin-4-yl)oxy]-3-fluorophenyl]-4-hydroxy-2,6-dimethyl-5-(5-propan-2-ylfuran-2-yl)pyridine-3-carboxamide] | ≥ 7.00 | ≥ 7.00
COc1cc2nccc(Oc3ccc(NC(=O)c4c(C)n(C)c(C)c(-c5ccco5)c4=O)cc3F)c2nc1OC [Compound 160, N-[4-[(6,7-Dimethoxy-1,5-naphthyridin-4-yl)oxy]-3-fluorophenyl]-5-(furan-2-yl)-1,2,6-trimethyl-4-oxopyridine-3-carboxamide] | ≥ 7.00 | ≥ 7.00
COc1cc2nccc(Oc3ccc(NC(=O)c4cnc(C)c(-c5ccoc5)c4O)cc3F)c2nc1OC [Compound 95, N-[4-[(6,7-Dimethoxy-1,5-naphthyridin-4-yl)oxy]-3-fluoro-phenyl]-5-(3-furyl)-4-hydroxy-6-methyl-pyridine-3-carboxamide] | ≥ 7.00 | ≥ 7.00
COc1cc2nccc(Oc3cc(F)c(NC(=O)c4c(C)n(C)c(C)c(-c5ccco5)c4=O)cc3F)c2nc1OC [Compound 163, N-[4-[(6,7-Dimethoxy-1,5-naphthyridin-4-yl)oxy]-2,5-difluorophenyl]-5-(furan-2-yl)-1,2,6-trimethyl-4-oxopyridine-3-carboxamide] | ≥ 7.00 | ≥ 7.00
